# Data reported in US12479820B2, “Pyridin-3-yl derivatives” (Idorsia Pharmaceuticals Ltd, priority 2019, dated 2025).
# Biological target: T1, human LPA1 receptor (Homo sapiens, UniProt Q92633)
# T1 construct: TEV protease site; Gal4-VP16 transcription factor; host or cells: Tango EDG2-bla U2OS cells
# Test: Beta-arrestin recruitment assay to determine IC50 values for human LPAR1
# Type: cell-based
# Conditions: Tango EDG2-bla U2OS cells, antagonist assay, LPA 18:1 500 nM final
# Summary of the method: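 Tango EDG2-bla U2OS cells were preincubated 30 min at 37 °C with compound. They were then stimulated with 500 nM (final) LPA 18:1 for 16 h. β-Lactamase reporter read by LiveBLAzer FRET substrate (2 h) as the 460/530 nm ratio; IC50 from 4-parameter logistic fit.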
# T1 sequence (Q92633 whole entry, the tested form may be a part): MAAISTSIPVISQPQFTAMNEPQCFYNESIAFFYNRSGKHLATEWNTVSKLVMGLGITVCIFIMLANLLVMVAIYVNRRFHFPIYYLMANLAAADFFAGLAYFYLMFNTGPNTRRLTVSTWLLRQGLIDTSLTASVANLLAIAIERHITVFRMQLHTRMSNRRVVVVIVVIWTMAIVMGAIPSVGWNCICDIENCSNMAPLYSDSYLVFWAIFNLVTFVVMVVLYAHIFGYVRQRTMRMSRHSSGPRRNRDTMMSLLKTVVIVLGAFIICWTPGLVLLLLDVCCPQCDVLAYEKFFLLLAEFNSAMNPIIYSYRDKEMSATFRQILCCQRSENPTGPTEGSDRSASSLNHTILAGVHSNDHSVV
row,IC50 [nM],Compound
1,12,"CNC(=O)N1CC(C(=O)Nc2cnc(Cl)cc2OC)(c2ccccc2C(C)C)C1 [Example 22-2, N3-(6-chloro-4-methoxypyridin-3-yl)-3-(2-isopropylphenyl)-N1-methylazetidine-1,3-dicarboxamide]"
2,1,"COc1cc(Cl)ncc1NC(=O)C1(c2ccccc2C(C)C)CN(c2ncc(C#N)cn2)C1 [Example 24-8, N-(6-chloro-4-methoxypyridin-3-yl)-1-(5-cyanopyrimidin-2-yl)-3-(2-isopropylphenyl)azetidine-3-carboxamide]"
3,1560,"COc1ccncc1NC(=O)C1(c2ccccc2C(C)C)CN(S(N)(=O)=O)C1 [Example 21-18, 3-(2-isopropylphenyl)-N-(4-methoxypyridin-3-yl)-1-sulfamoylazetidine-3-carboxamide]"
4,19,"COC(=O)C(C)(C)CCN1CCC(C(=O)Nc2cnc(Cl)cc2OC)(c2ccccc2C(C)C)CC1 [Example 18-21, methyl 4-(4-((6-chloro-4-methoxypyridin-3-yl)carbamoyl)-4-(2-isopropylphenyl)piperidin-1-yl)-2,2-dimethylbutanoate]"
5,43,"COC(=O)C(C)(C)CC(=O)N1CC(C(=O)Nc2cnc(Cl)cc2OC)(c2ccccc2C(C)C)C1 [Example 19-17, methyl 4-(3-((6-chloro-4-methoxypyridin-3-yl)carbamoyl)-3-(2-isopropylphenyl)azetidin-1-yl)-2,2-dimethyl-4-oxobutanoate]"
6,74,"COc1cc(Cl)ncc1NC(=O)C1(c2ccccc2C(C)C)CN(C(=O)N(C)C)C1 [Example 22-15, N^3-(6-chloro-4-methoxypyridin-3-yl)-3-(2-isopropylphenyl)-N1,N1-dimethylazetidine-1,3-dicarboxamide]"
7,61,"COc1cc(Cl)ncc1NC(=O)C1(c2ccccc2C(C)C)CN(C(=O)c2noc(O)n2)C1 [Example 19-6, N-(6-chloro-4-methoxypyridin-3-yl)-1-(5-hydroxy-1,2,4-oxadiazole-3-carbonyl)-3-(2-isopropylphenyl)azetidine-3-carboxamide]"
8,17,"COc1cc(Cl)ncc1NC(=O)C1(c2ccccc2C(C)C)CN(C(=O)Cn2ncnn2)C1 [Example 19-10, 1-(2-(2H-tetrazol-2-yl)acetyl)-N-(6-chloro-4-methoxypyridin-3-yl)-3-(2-isopropylphenyl)azetidine-3-carboxamide]"
9,8,"COc1cc(Cl)ncc1NC(=O)C1(c2ccccc2C(C)C)CN(c2ncc(F)cn2)C1 [Example 24-9, N-(6-chloro-4-methoxypyridin-3-yl)-1-(5-fluoropyrimidin-2-yl)-3-(2-isopropylphenyl)azetidine-3-carboxamide]"
10,9,"COc1cc(Cl)ncc1NC(=O)C1(c2ccccc2C(C)C)CN(C(C)C)C1 [Example 18-1, N-(6-chloro-4-methoxypyridin-3-yl)-1-isopropyl-3-(2-isopropylphenyl)azetidine-3-carboxamide]"
11,472,"COc1cc(Cl)ncc1NC(=O)C1(c2ccccc2C(C)C)CN(S(=O)(=O)CCN(C)C)C1 [Example 20-4, N-(6-chloro-4-methoxypyridin-3-yl)-1-((2-(dimethylamino)ethyl)sulfonyl)-3-(2-isopropylphenyl)azetidine-3-carboxamide]"
12,12,"COc1cc(Cl)ncc1NC(=O)C1(c2ccccc2C(C)C)CCNCC1 [Example 10, N-(6-chloro-4-methoxypyridin-3-yl)-4-(2-isopropylphenyl)piperidine-4-carboxamide]"
13,419,"COc1cc(Cl)ncc1NC(=O)C1(c2nc(F)ccc2C(C)C)CNC1 [Example 16, N-(6-chloro-4-methoxypyridin-3-yl)-3-(6-fluoro-3-isopropylpyridin-2-yl)azetidine-3-carboxamide]"
14,347,"COc1cc(Cl)ncc1NC(=O)C1(c2ccccc2C(C)C)CN(CCCc2nnn[nH]2)C1 [Example 18-5, 1-(3-(1H-tetrazol-5-yl)propyl)-N-(6-chloro-4-methoxypyridin-3-yl)-3-(2-isopropylphenyl)azetidine-3-carboxamide]"
15,22,"COc1cc(Cl)ncc1NC(=O)C1(c2ccccc2C(C)C)CN(S(=O)(=O)NC2CC2)C1 [Example 21-13, N-(6-chloro-4-methoxypyridin-3-yl)-1-(N-cyclopropylsulfamoyl)-3-(2-isopropylphenyl)azetidine-3-carboxamide]"
16,34,"COc1cc(Cl)ncc1NC(=O)C1(c2ccccc2C(C)C)CN(S(=O)(=O)C2COC2)C1 [Example 20-5, N-(6-chloro-4-methoxypyridin-3-yl)-3-(2-isopropylphenyl)-1-(oxetan-3-ylsulfonyl)azetidine-3-carboxamide]"
17,7,"COc1cc(Cl)ncc1NC(=O)C1(c2ccccc2C(C)C)CN(c2ccnc(C)n2)C1 [Example 24-12, N-(6-chloro-4-methoxypyridin-3-yl)-3-(2-isopropylphenyl)-1-(2-methylpyrimidin-4-yl)azetidine-3-carboxamide]"
18,44,"COc1cc(Cl)ncc1NC(=O)C1(c2ccccc2C(C)C)CN(CCN)C1 [Example 18-7, 1-(2-aminoethyl)-N-(6-chloro-4-methoxypyridin-3-yl)-3-(2-isopropylphenyl)azetidine-3-carboxamide]"

row,IC50 [nM],Compound
1,3,"COc1cc(Cl)ncc1NC(=O)C1(c2c(F)cccc2C(C)C)CNC1 [Example 13, N-(6-chloro-4-methoxypyridin-3-yl)-3-(2-fluoro-6-isopropylphenyl)azetidine-3-carboxamide]"
2,270,"COc1cc(Cl)ncc1NC(=O)C1(c2ccccc2C(C)C)CN(c2nnn[nH]2)C1 [Example 25, N-(6-chloro-4-methoxypyridin-3-yl)-3-(2-isopropylphenyl)-1-(1H-tetrazol-5-yl)azetidine-3-carboxamide]"
3,15,"COCCNC(=O)N1CC(C(=O)Nc2cnc(Cl)cc2OC)(c2ccccc2C(C)C)C1 [Example 22-10, N3-(6-chloro-4-methoxypyridin-3-yl)-3-(2-isopropylphenyl)-N1-(2-methoxyethyl)azetidine-1,3-dicarboxamide]"
4,1,"COc1cc(Cl)ncc1NC(=O)C1(c2ccccc2C(C)C)CN(c2cc(F)ccn2)C1 [Example 24-7, N-(6-chloro-4-methoxypyridin-3-yl)-1-(4-fluoropyridin-2-yl)-3-(2-isopropylphenyl)azetidine-3-carboxamide]"
5,3,"COc1cc(Cl)ncc1NC(=O)C1(c2ccccc2C(C)C)CN(c2ccnc(C)c2)C1 [Example 24-5, N-(6-chloro-4-methoxypyridin-3-yl)-3-(2-isopropylphenyl)-1-(2-methylpyridin-4-yl)azetidine-3-carboxamide]"
6,5,"COc1cc(Cl)ncc1NC(=O)C1(c2ccccc2C(C)C)CN(c2ncncc2C)C1 [Example 24-13, N-(6-chloro-4-methoxypyridin-3-yl)-3-(2-isopropylphenyl)-1-(5-methylpyrimidin-4-yl)azetidine-3-carboxamide]"
7,54,"COc1cc(Cl)ncc1NC(=O)C1(c2ccccc2C(C)C)CN(C(=O)CS(C)(=O)=O)C1 [Example 19-16, N-(6-chloro-4-methoxypyridin-3-yl)-3-(2-isopropylphenyl)-1-(2-(methylsulfonyl)acetyl)azetidine-3-carboxamide]"
8,156,"CCOC(=O)C(C)(C)CCCN1CC(C(=O)Nc2cnc(Cl)cc2OC)(c2ccccc2C(C)C)C1 [Example 18-24, ethyl 5-(3-((6-chloro-4-methoxypyridin-3-yl)carbamoyl)-3-(2-isopropylphenyl)azetidin-1-yl)-2,2-dimethylpentanoate]"
9,127,"COc1cc(Cl)ncc1NC(=O)C1(c2ccccc2C(C)C)CN(C(=O)CCO)C1 [Example 19-1, N-(6-chloro-4-methoxypyridin-3-yl)-1-(3-hydroxypropanoyl)-3-(2-isopropylphenyl)azetidine-3-carboxamide]"
10,252,"COCCOc1cc(Cl)ncc1NC(=O)C1(c2ccccc2C(C)C)CNC1 [Example 8, N-(6-chloro-4-(2-methoxyethoxy)pyridin-3-yl)-3-(2-isopropylphenyl)azetidine-3-carboxamide]"
11,100,"COc1cc(F)ncc1NC(=O)C1(c2ccccc2C(C)C)CN(C(=O)CC(C)(C)C(=O)O)C1 [Example 19-23, 4-(3-((6-fluoro-4-methoxypyridin-3-yl)carbamoyl)-3-(2-isopropylphenyl)azetidin-1-yl)-2,2-dimethyl-4-oxobutanoic acid]"
12,5,"COc1cc(Cl)ncc1NC(=O)C1(c2ccccc2C(C)C)CN(C(=O)NC2CC2)C1 [Example 22-5, N3-(6-chloro-4-methoxypyridin-3-yl)-N1-cyclopropyl-3-(2-isopropylphenyl)azetidine-1,3-dicarboxamide]"
13,42,"COc1cc(C(F)(F)F)ncc1NC(=O)C1(c2ccccc2C(C)C)CN(S(N)(=O)=O)C1 [Example 21-11, 3-(2-isopropylphenyl)-N-(4-methoxy-6-(trifluoromethyl)pyridin-3-yl)-1-sulfamoylazetidine-3-carboxamide]"
14,3,"COc1cc(Cl)ncc1NC(=O)C1(c2ccccc2C(C)C)CCN(c2ncncc2F)CC1 [Example 24-17, N-(6-chloro-4-methoxypyridin-3-yl)-1-(5-fluoropyrimidin-4-yl)-4-(2-isopropylphenyl)piperidine-4-carboxamide]"
15,15,"CCOC(=O)c1coc(N2CC(C(=O)Nc3cnc(Cl)cc3OC)(c3ccccc3C(C)C)C2)n1 [Example 24-25, ethyl 2-(3-((6-chloro-4-methoxypyridin-3-yl)carbamoyl)-3-(2-isopropylphenyl)azetidin-1-yl)oxazole-4-carboxylate]"
16,74,"COc1ccncc1NC(=O)C1(c2ccccc2C(C)C)CNC1 [Example 2, 3-(2-isopropylphenyl)-N-(4-methoxypyridin-3-yl)azetidine-3-carboxamide]"
17,91,"COc1cc(Cl)ncc1NC(=O)C1(c2ccccc2C(C)C)CN(c2cc(C)nc(C)c2)C1 [Example 24-6, N-(6-chloro-4-methoxypyridin-3-yl)-1-(2,6-dimethylpyridin-4-yl)-3-(2-isopropylphenyl)azetidine-3-carboxamide]"
